Assay results reported in patent US20250332265A1, “PSMA TARGETED CONJUGATE COMPOUNDS AND USES THEREOF” (priority 2021, published 2025).

What was measured:
PSMA = target: T1, PSMA (Homo sapiens, UniProt Q04609); assay: Competition binding studies, Example 2
T1 construct: expressed in transfected cells; host or cells: PC3pip cells (PC3 retrovirally transduced with PSMA), from Dr. Michel Sadelain, MSKCC
Procedure: PC3pip cells ([…]) was suspended in 200 μL of 50 mM Tris buffer, pH 7.5. The cells were incubated at 37° C. with different concentrations of PSMA-1-MMAE-IR700 or ZJ24 in the presence of 12 nM of 3H-ZJ24 for 1 h. The cells were then washed 3 times with cold PBS and cell-associated radioactivity was measured by scintillation counting. The concentration required to inhibit 50% of the binding (IC50) was determined by GraphPad Prism 3.0. Studies were performed in triplicate.

human liver cathespin = target: T2, human liver cathespin (Homo sapiens, UniProt P07858); assay: Cathepsin cleavage studies, Example 2; type: in vitro ADME; details: 37° C., HPLC
T2 construct: purchased Anthens Research and Technology, Anthens, GA; host or cells: human liver (tissue-derived enzyme)
Procedure: (§1) Enzymatic cleavage study of PSMA-1-MMAE-IR700 was performed as previously described. PSMA-1-MMAE-IR700 was incubated with activated human liver cathespin (Anthens Research and Technology, Anthens, GA) at 37° C. At different incubation time, 40 μL of the solution was placed into tubes loaded with 1 μL of 1 mM E64 protease inhibitor. The mixture was vortexed and then stored at −80° C. for future HPLC analysis. Studies were performed in triplicate. In vitro cellular uptake studies cells were plated on coverslips at about 60-70% confluency. Twenty-four hours later, cells were incubated with 50 nM of PSMA-1-MMAE-IR700. After incubation for various times (15 min, 30 min, 1 h and 4 h), cells were washed twice with cold RPMI 1640, fixed with 4% paraformaldehyde and counterstained with 4′,6-diamidino-2-phenylindole (DAPI). Images were taken using a Leica DM4000B fluorescence microscope (Leica Biosystems, Buffalo Gove, IL) at 40×. Blocking experiments were performed by co-incubation of cells with 50 nM of PSMA-1-MMAE-IR700 and 100× of PSMA-1 ligand. Studies were performed in triplicate.

[1] = tested on: PSMA-negative PC3flu cells; assay: In vitro uptake studies, Example 2, PC3flu; type: cell-based, human; details: 50 nM
Procedure: as §1

[2] = tested on: orthotopic PC3pipGFP tumors; assay: Detection of orthotopic tumor and lymph node metastases; type: in vivo, mice; details: 100 nmol/kg, 1 h post injection
Procedure: Orthotopic PC3pipGFP prostate cancer models were established as previously described using green fluorescence protein (GFP) transfected PC3pip cells. Mice bearing orthotopic PC3pipGFP tumors were injected with 100 nmol/kg of PSMA-1-MMAE-IR700. Mice were imaged at 1 h post injection by Maestro using the yellow filter set for PSMA-1-MMAE-IR700 and blue filter set for GFP (excitation 445-490 nm, emission 515 nm longpass). Mice were then euthanized and primary tumor was removed to expose lymph nodes. The mice were imaged again. Resected primary tumor and lymph nodes were snap-frozen in optimal cutting temperature (OCT) compound and sectioned. The slides were subjected to hematoxylin and eosin (H&E) staining, and adjacent set of slides were counter stained with DAPI and observed under Leica DM4000B fluorescence microscope at 10× to visualize DAPI, GFP and PSMA-1-MMAE-IR700. Experiments were repeated in three mice.

PC3pip tumors = assay: In vivo antitumor efficacy studies with PDT; parameters: species or system mice
Procedure: The effect of PSMA-1-MMAE-IR700 were tested in mice bearing PC3pip tumors. Animals with tumor size at about 100 mm3 were used for the study (tumor volume=Length×width2/2). Animals were divided into 7 groups: (1) mice receiving PBS; (2) mice receiving 100 nmol/kg PSMA-1-MMAE-IR700 with PDT; (3) mice receiving equal doses of PSMA-1-MMAE-IR700 to group 2, but not receiving PDT; (4) Mice receiving equal doses of PSMA-1-IR700 to group 2 with PDT treatment; (5) Mice receiving equal doses of PSMA-1-IR700 to group 2 without PDT; (6) mice receiving equal doses of PSMA-1-IR700 to group 2+free MMAE with PDT (MMAE normalized to that delivered by PSMA-1-MMAE-IR700); and (7) mice receiving equal doses of PSMA-1-IR700 to group 2+free MMAE without PDT. Each group had 5 mice. Animals received drugs through tail vein injection on day 0, 4, 8, 12 and 16 and treated with 50 J/cm2 of 690 nm light at 1 h post-injection on these injection days. The dose and schedule was based on previous PSMA-1-VcMMAE work and were not optimized. Animals were imaged before and after PDT. Mice were monitored every other day for 90 days. Animals were euthanized when tumors became too large (diameter >20 mm) or animals were moribund. Data were reported as body weight over time, tumor size over time and Kaplan-Meier survival plots.

[3] = Pharmacokinetic studies based on fluorescence; type: in vivo, mice; details: after 4 h post injection almost all drug was cleared
From the text: Prostate cancer is highly heterogeneous, which will affect treatment response, drug resistance and clinical outcome. The use of combination therapies with different mechanisms of action will offer potential advantages over a single therapy and it can be an effective way to deal with the ‘heterogeneity’ of cancer cells. […] The use of anticancer drugs is therefore limited by unwanted side effects. To overcome these problems, we have developed a multifunctional molecule named PSMA-1-MMAE-IR700 that combines chemotherapy, PDT, and imaging in a single molecule that is targeted to PSMA. PSMA is over expressed almost exclusively on prostate cancer (FIG. 6A). MMAE was selected as the chemotherapeutic drug because of its high potency, its wide use in antibody drug conjugates, its synergy with PDT and the fact that we have successfully targeted it to PSMA for the treatment of prostate cancer with a greater therapeutic index when compared to a PSMA-targeted antibody drug conjugate using MMAE. IR700 was selected as the photosensitizer due to its good water-solubility, its high fluorescence quantum yield and singlet oxygen yield, its long wavelength absorption (690 nm), and the fact that a cetuximab-IR700 conjugate (RM-1929) has been approved in Japan for local regional treatment of head and neck cancer. […] The fluorescence from IR700 allowed visualization of uptake studies of PSMA-1-MMAE-IR700. […]

T1 sequence (Q04609 whole entry): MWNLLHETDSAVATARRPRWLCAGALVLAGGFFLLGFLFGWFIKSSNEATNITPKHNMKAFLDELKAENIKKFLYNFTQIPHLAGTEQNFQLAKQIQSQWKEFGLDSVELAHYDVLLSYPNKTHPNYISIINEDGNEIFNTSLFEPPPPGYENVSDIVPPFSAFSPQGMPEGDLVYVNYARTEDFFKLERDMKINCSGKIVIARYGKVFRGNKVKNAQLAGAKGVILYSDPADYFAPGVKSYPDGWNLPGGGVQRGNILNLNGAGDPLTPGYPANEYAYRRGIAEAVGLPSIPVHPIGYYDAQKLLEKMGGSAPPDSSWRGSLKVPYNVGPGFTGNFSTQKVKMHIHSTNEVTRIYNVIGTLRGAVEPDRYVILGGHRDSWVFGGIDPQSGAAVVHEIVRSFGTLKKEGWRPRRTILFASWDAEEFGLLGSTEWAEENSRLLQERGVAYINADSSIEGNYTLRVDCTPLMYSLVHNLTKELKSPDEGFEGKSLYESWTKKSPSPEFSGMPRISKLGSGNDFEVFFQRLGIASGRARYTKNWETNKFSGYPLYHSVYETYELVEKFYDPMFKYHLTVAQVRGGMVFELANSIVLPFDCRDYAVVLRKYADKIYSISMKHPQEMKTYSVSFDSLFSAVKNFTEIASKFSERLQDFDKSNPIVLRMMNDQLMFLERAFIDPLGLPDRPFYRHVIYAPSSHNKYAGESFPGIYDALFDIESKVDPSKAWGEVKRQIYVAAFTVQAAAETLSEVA

CC[C@H](C)[C@@H]([C@@H](CC(=O)N1CCC[C@H]1[C@H](OC)[C@@H](C)C(=O)N[C@H](C)[C@@H](O)c1ccccc1)OC)N(C)C(=O)[C@@H](NC(=O)[C@H](C(C)C)N(C)C(=O)OCc1ccc(NC(=O)[C@H](CCCNC(N)=O)NC(=O)[C@@H](NC(=O)CCCCCN2C(=O)CC(SC[C@H](NC(=O)[C@H](CCC(=O)O)NC(=O)[C@H](CCC(=O)O)NC(=O)[C@H](CCC(=O)O)NC(=O)CCCCCNC(=O)[C@H]3CC[C@H](CNC(=O)CC[C@H](NC(=O)N[C@@H](CCC(=O)O)C(=O)O)C(=O)O)CC3)C(=O)NCCCCCC(=O)N[C@@H](CCCCNC(=O)CCCCCNC(=O)OCCCOc3cccc4c5n6c(c34)=NC3=NC(=Nc4c7ccccc7c(n4[Si]6(O[Si](C)(C)CCC[N+](CCCS(=O)(=O)[O-])(CCCS(=O)(=O)O)CCCS(=O)(=O)O)O[Si](C)(C)CCC[N+](CCCS(=O)(=O)[O-])(CCCS(=O)(=O)O)CCCS(=O)(=O)O)N=C4N=C(N=5)c5ccccc54)c4ccccc43)C(N)=O)C2=O)C(C)C)cc1)C(C)C (stereo partly shown) [PSMA-1-MMAE-IR700]
binding relative to ZJ24 (PSMA): 4.4 fold
degradation in the presence of cathepsin (human liver cathespin): degraded rapidly
fluorescence signal (uptake) in PC3flu cells [1]: no fluorescence signal was observed
fluorescence signal in primary tumor and lymph node histology [2]: only observed in cancer tissues
tumor growth, with light irradiation (PDT) (PC3pip tumors; 100 nmol/kg every 4 days, 5 doses, 50 J/cm^2 of 690 nm light): greatest tumor growth inhibition
tumor growth, no light treatment (PC3pip tumors; 100 nmol/kg every 4 days, 5 doses, no light): significantly inhibited tumor growth
cure rate for tumors (PC3pip tumors; 100 nmol/kg with light irradiation, 90-day period): 60%
histological analysis of major organs on day 30 (PC3pip tumors; liver, lung, heart, spleen, kidney, salivary gland and prostate): did not cause systemic toxicity
body weight loss (PC3pip tumors; treatment groups): did not cause any body weight loss
clearance from the blood [3]: cleared quickly from the blood
